# PMC10860144, “Exploring the Dispersion and Electrostatic Components in Arene–Arene Interactions between Ligands and G4 DNA to Develop G4-Ligands” (Journal of Medicinal Chemistry, 2024)
# “And” between values parts separate entries of the source, which are not always exact repeats. Identical values can stand only once.
# How the values were obtained:
# [1] = target: c-MYC Pu22 G4 DNA; test: Microscale thermophoresis (MST), c-MYC Pu22 G4 DNA; format: binding, human; conditions: Cy5-labeled c-MYC Pu22 G4 DNA 25 nM; pH 7.4, 100 mM KCl; read-out: apparent Kd (MST)
# Procedure: To evaluate the apparent binding affinities (Kd) for the compound series, we next used microscale thermophoresis (MST) with fluorescently labeled c-MYC Pu22 G4 DNA (Table S1). Overall, the measured MST binding results for compounds 2–11 corresponded well with the results from the FRET assay (Figures 2B and S3).
# 5′-Cy5 labeled G4 DNAs for this study were purchased from Eurofins Genomics. Stock solutions were prepared in water at 100 μM concentration. The sequences used are listed in Supporting Information Table S1. The G4 DNA sequences were folded in KCl buffer (10 mM phosphate, 100 mM KCl, pH 7.4) by heating at 95 °C for 5 min and then cooling to room temperature. All the experiments were performed in 10 mM phosphate pH 7.4, 100 mM KCl, and 0.05% Tween20. The labeled DNA concentration is held constant at 25 nM, and ligand concentration is varied depending on ligands Kd (16 1:3 dilutions). The samples were loaded into standard MST graded glass capillaries and initial fluorescence intensity of the capillary was measured using Monolith NT.115 (Nano Temper, Germany) with 20% LED power. The change in fluorescence with ligand’s concentrations were plotted in Excel and fitted through nonlinear equation to obtain the binding constants. […]
# Microscale Thermophoresis (MST)
# 5'- Cy5 labelled G4 DNAs for this study were purchased from Eurofins Genomics. Stock solutions were prepared in water at […] concentration. The sequences used are listed in supplementary Table S1. The G4 DNA sequences were folded in KCl buffer (10 mM phosphate, 100 mM KCl, pH 7.4) by heating at 95 °C for 5 min and then cooling to room temperature. All the experiments were performed in 10 mM phosphate pH 7.4, 100 mM KCl, 0.05% Tween20. The labelled DNA concentration is held constant at 25 nM and ligand concentration is varied depending on ligands Kd (sixteen 1:3 dilutions). The samples were loaded into standard MST graded glass capillaries and initial fluorescence intensity of the capillary were measured using Monolith NT.115 (Nano Temper, Germany) with 20% LED power. The change in fluorescence with ligand's concentrations were plotted in Excel and fitted through non-linear equation to obtain the binding constants.
# (1 picture or pasted object on this page, not shown here)
# [2] = logD at pH 7.4; format: physicochemical
# Procedure: (§1) Physicochemical properties
# (§2) The Physicochemical profiling (LogD, Solubility, Caco-2 cell permeability) was performed as previously
# (§3) described.8 Cell viability was performed as described below.
# (§4) Table S2. Pharmacokinetic Properties
# (§5) Compound Structure logD, Solubility, Rat hepsa Human mics b
# [3] = Solubility at pH 7.4; format: physicochemical
# Procedure: as §1, §2, §3, §4, §5
# [4] = Intrinsic clearance in rat hepatocytes; format: in vitro ADME
# Procedure: (§6) All compounds (2–11, 25–29) were screened for their logD and solubility at pH 7.4 and for their intrinsic clearance in rat hepatocytes and human microsomes (Table S2). […] Replacing the basic amine side chain to a methyl substituent in the quinazolines (25–29) still retained good solubility (134 to over 1000 μM) but increased clearance in both rat hepatocytes and human microsomes. The logD was low for compounds with a basic amine side chain (2–11) and increased slightly when the amine was replaced with a methyl (25–29). As expected, additional substituents also affected the logD with the chloro-substituents increasing logD the most.
# (§7) a Intrinsic clearance in rat hepatocytes ((μL/min)/10^6 cells).b Intrinsic clearance in human microsomes (μL/min/mg). […]
# [5] = Intrinsic clearance in human microsomes; format: in vitro ADME; conditions: read-out: Human mics: intrinsic clearance in human microsomes
# Procedure: as §6, §7
# [6] = target: Pu24T c-MYC G4 structure; test: Kd for binding to the Pu24T c-MYC G4 structure (supplementary CSV); parameters: species or system human
# Procedure: 5′-Cy5 labeled G4 DNAs for this study were purchased from Eurofins Genomics. Stock solutions were prepared in water at 100 μM concentration. The sequences used are listed in Supporting Information Table S1. The G4 DNA sequences were folded in KCl buffer (10 mM phosphate, 100 mM KCl, pH 7.4) by heating at 95 °C for 5 min and then cooling to room temperature. All the experiments were performed in 10 mM phosphate pH 7.4, 100 mM KCl, and 0.05% Tween20. The labeled DNA concentration is held constant at 25 nM, and ligand concentration is varied depending on ligands Kd (16 1:3 dilutions). The samples were loaded into standard MST graded glass capillaries and initial fluorescence intensity of the capillary was measured using Monolith NT.115 (Nano Temper, Germany) with 20% LED power. The change in fluorescence with ligand’s concentrations were plotted in Excel and fitted through nonlinear equation to obtain the binding constants.
# The Supporting Information is available free of charge at https://pubs.acs.org/doi/10.1021/acs.jmedchem.3c02127. • Experimental procedures and data; assay data, computational results, and all cell data; NMR (^1H and ^13C) spectra for all compounds (with the exception of a few intermediates); and HPLC UV traces for the final compounds (PDF) • Molecular formula strings and Kd values for binding to the Pu24T c-MYC G4 structure (CSV)
# [7] = tested on: G4 structure on DNA template (PEPu24T); test: Taq polymerase stop (primer extension) assay, G4 template; format: biochemical; conditions: compound 0.24 μM; compared to DMSO control
# Description: To challenge all the synthesized compounds (2–11 and 25–29) in a more intricate context, we conducted a Taq polymerase stop assay to evaluate their capacity to impede DNA synthesis through G4 stabilization. In this assay, we compared the progress of the Taq DNA polymerase along two distinct DNA templates: one with a G4 structure (Figure 5) and another serving as a non-G4 control (Figure S21). If an external species (e.g., G4 ligand) binds and stabilizes the G4 structure, the polymerase will be partially halted. The extent of this DNA polymerase stalling is dependent on the ability of the compound to stabilize the G4 on the DNA template. The increased G4 stabilization can be detected as a reduction in the amount of newly synthesized DNA that has reached the end of the DNA template (full-length/end-product). Analysis of these shorter terminated DNA products will give information about the precise location of the DNA polymerase stalling with a single nucleotide resolution. If the ligand imposes little to no stabilization or binding, the G4 is readily resolved by the DNA polymerase, and no difference in the amount of DNA end-product can therefore be expected upon the addition of the compound.
# Templates for the primer extension assay were created by annealing 25 nt TET labeled primer (1 μM final concentration) to either PEPu24T or a mutated sequence not forming a G4, PEPu24T mut, (1.25 μM final concentration) in 100 mM KCl by heating to 95 °C for 5 min and slowly cooling to room temperature. […] Compounds were added in the indicated concentration and incubated on ice for 10 min before starting the reaction by adding dNTPs (100 μM final concentration) to the reaction and transferring it to 37 °C. Reactions were stopped after 15 min by addition of 10 μL of formamide loading buffer (0.5% SDS, 25 mM EDTA, 95% v/v formamide and xylene-cyanol). Samples were then loaded on a 12% polyacrylamide gel containing 7 M urea and 25% formamide and imaged using an Amersham Typhoon. The images were quantified using ImageJ 1.53e software, and the percentage of full-length product compared to a sample without compound was calculated.
# Templates for the primer extension assay were created by annealing 25nt TET labelled primer (1 µM final concentration) to either PEPu24T or a mutated sequence not forming a G4, PEPu24T mut, (1.25 µM final concentration) in 100 mM KCl by heating to 95 °C for 5 min and slowly cooling to room temperature. The reaction mixture (10 µl) contained 1X Taq Buffer with KCl (10 mM Tris-HCl pH 8.8, 50 mM KCl, detergent), 25 mM MgCl2, […]
# […] Compounds were added in the indicated concentration and incubated on ice for 10 min before starting the reaction by adding dNTPs (100 µM final concentration) to the reaction and transferring it to 37 °C. Reactions were stopped after 15 min by addition of 10 µl of formamide loading buffer (0,5% SDS, 25 mM EDTA, 95% v/v formamide and xylene-cyanol). Samples were then loaded on a 12% polyacrylamide gel containing 7 M urea and 25% formamide and imaged using an Amersham™ Typhoon™.
# The images were quantified using ImageJ 1.53e software and the percentage of full-length product compared to a sample without compound was calculated. […]
SMILES,Kd [1],logD [2],solubility [3] [µM],Rat heps: intrinsic clearance in rat hepatocytes [4],microsomal CLint [5] [µL/min/mg],Kd [6] [µM],full-length DNA product [7]
"Cc1cc(NCCCN(C)C)nc(Nc2nc3cc(C)c(C)cc3nc2C)n1 [Compound 10, N4-(3-(Dimethylamino)propyl)-6-methyl-N2-(3,6,7-trimethylquinoxalin-2-yl)pyrimidine-2,4-diamine]",2.3 µM and 2.26 µM,1.4,838,19 (μL/min)/106 cells,< 3,2.3 ± 0.5,–
"COc1ccc2nc(Nc3nc(C)cc(C)n3)nc(C)c2c1 [Compound 28, N-(4,6-Dimethylpyrimidin-2-yl)-6-methoxy-4-methylquinazolin-2-amine]",3.6 µM,1.9,271,34 (μL/min)/106 cells,22,3.6 ± 0.7,–
"Cc1cc(NCCCN(C)C)nc(Nc2nc(C)c3cc(Cl)ccc3n2)n1 [Compound 7, N2-(6-Chloro-4-methylquinazolin-2-yl)-N4-(3-(dimethylamino)propyl)-6-methylpyrimidine-2,4-diamine]",0.17 µM,0.9,990,1 (μL/min)/106 cells,< 3,0.17 ± 0.02,about 30%
"Cc1ccc2nc(Nc3nc(C)cc(C)n3)nc(C)c2c1 [Compound 26, N-(4,6-Dimethylpyrimidin-2-yl)-4,6-dimethylquinazolin-2-amine]",3.3 µM,2.2,951,20 (μL/min)/106 cells,84,3.3 ± 0.3,–
"Cc1cc(NCCCN(C)C)nc(Nc2nc3ccccc3nc2C)n1 [Compound 9, N4-(3-(Dimethylamino)propyl)-6-methyl-N2-(3-methylquinoxalin-2-yl)pyrimidine-2,4-diamine]",> 10 µM,0.5,871,17 (μL/min)/106 cells,< 3,> 10,–
"COc1ccc2nc(Nc3nc(C)cc(NCCCN(C)C)n3)nc(C)c2c1 [Compound 6, N4-(3-(Dimethylamino)propyl)-N2-(6-methoxy-4-methylquinazolin-2-yl)-6-methylpyrimidine-2,4-diamine]",0.09 µM,0.1,> 1000,< 1 (μL/min)/106 cells,< 3,0.09 ± 0.01,about 30%
"Cc1cc(NCCCN(C)C)nc(Nc2nc3cc(Cl)c(Cl)cc3nc2C)n1 [Compound 11, N2-(6,7-Dichloro-3-methylquinoxalin-2-yl)-N4-(3-(dimethylamino)propyl)-6-methylpyrimidine-2,4-diamine]",3.9 µM and 3.85 µM,2.3,646,6 (μL/min)/106 cells,< 3,3.9 ± 0.7,–
"Cc1cc(C)nc(Nc2nc(C)c3ccccc3n2)n1 [Compound 25, N-(4,6-Dimethylpyrimidin-2-yl)-4-methylquinazolin-2-amine]",> 15 µM,1.8,> 1000,17 (μL/min)/106 cells,71,> 15,–
"Cc1cc(C)nc(Nc2nc(C)c3cc(Cl)ccc3n2)n1 [Compound 29, 6-Chloro-N-(4,6-dimethylpyrimidin-2-yl)-4-methylquinazolin-2-amine]",> 15 µM,2.4,134,9 (μL/min)/106 cells,56,> 15,–
